Results published in US20240247080A1, “GLP1/GIP/NPY2 RECEPTOR TRIPLE AGONISTS” (Boehringer Ingelheim International GmbH, priority 2022, published 2024).
Like-named read-outs stand apart in the source and are kept apart here.

What was measured:
Assay type in all cases: cell-based
Conditions in all cases: CreLuc reporter gene assay
hGLP1R = target: T1, hGLP1R (Homo sapiens, UniProt P43220); assay: hGLP1R CreLuc reporter gene assay in 0.5% and 100% plasma
T1 construct: expressed in transfected cells; host or cells: HEK-293 cells carrying a CRE-luciferase reporter gene
T1 sequence (P43220 24-463): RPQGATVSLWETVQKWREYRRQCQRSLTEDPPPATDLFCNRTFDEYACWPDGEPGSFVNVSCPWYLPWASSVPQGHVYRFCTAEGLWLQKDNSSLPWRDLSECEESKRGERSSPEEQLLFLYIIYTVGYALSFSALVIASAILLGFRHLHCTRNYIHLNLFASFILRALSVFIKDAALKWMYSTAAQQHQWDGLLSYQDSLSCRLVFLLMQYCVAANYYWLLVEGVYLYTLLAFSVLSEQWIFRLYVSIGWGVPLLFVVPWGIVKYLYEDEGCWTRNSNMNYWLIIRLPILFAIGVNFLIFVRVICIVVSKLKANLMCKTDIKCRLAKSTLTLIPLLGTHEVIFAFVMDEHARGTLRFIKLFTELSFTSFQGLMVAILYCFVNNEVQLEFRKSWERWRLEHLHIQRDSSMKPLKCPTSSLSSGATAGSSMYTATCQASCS
Method in brief: (§1)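 HEK-293 cells co-expressing GLP-1 or NPY2 receptor and CHO cells expressing GIP receptor, each carrying a CRE-driven luciferase reporter, were stimulated with peptides for 4 hours at 37 °C. Luminescence was read after Bright-Glo addition. EC50 came from 8-point, four-decade curves fitted by variable-slope non-linear regression.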

hGIPR = target: T2, hGIPR (Homo sapiens, UniProt P48546); assay: hGIPR CreLuc reporter gene assay in 0.5% and 100% plasma
T2 construct: expressed in transfected cells; host or cells: CHO cells carrying a CRE-luciferase reporter gene
T2 sequence (P48546 22-466): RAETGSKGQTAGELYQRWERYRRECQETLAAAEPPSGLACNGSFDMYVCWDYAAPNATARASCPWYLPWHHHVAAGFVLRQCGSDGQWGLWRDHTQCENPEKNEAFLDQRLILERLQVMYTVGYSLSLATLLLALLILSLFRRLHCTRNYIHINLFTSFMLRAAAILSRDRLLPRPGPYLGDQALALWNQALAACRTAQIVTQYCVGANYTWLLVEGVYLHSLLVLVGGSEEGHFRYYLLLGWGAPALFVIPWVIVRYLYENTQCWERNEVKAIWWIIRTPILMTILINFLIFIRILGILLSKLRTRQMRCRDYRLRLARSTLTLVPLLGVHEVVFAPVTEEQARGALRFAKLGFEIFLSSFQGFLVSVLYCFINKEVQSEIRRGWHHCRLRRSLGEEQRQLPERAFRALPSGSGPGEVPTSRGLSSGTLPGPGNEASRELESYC
Method in brief: as §1

hNPY2R = target: T3, hNPY2R (Homo sapiens, UniProt P49146); assay: hNPY2R CreLuc reporter gene assay in 0.5% and 100% plasma
T3 construct: expressed in transfected cells; host or cells: HEK-293 cells carrying a CRE-luciferase reporter gene
T3 sequence (P49146 1-381): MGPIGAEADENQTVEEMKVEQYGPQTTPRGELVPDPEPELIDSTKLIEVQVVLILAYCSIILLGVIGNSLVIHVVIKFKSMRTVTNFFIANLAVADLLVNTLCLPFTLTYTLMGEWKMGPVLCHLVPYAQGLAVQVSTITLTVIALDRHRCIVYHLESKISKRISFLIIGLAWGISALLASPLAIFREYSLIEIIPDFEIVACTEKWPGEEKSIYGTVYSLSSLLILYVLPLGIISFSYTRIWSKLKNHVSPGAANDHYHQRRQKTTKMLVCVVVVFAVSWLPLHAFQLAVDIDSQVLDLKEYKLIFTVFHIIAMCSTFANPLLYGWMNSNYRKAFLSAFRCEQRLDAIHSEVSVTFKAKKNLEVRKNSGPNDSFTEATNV
Method in brief: as §1

[1] = 0.5% human plasma, read-out: hGLP1R 0.5% hP
[2] = 0.5% human plasma, read-out: hGIPR 0.5% hP
[3] = 100% human plasma, read-out: hGIPR 100% hP
[4] = 0.5% human plasma, read-out: hNPY2R 0.5% hP

| Structure (SMILES) | EC50 (hGLP1R; [1]) | EC50 (hGIPR; [2]) | EC50 (hGIPR; [3]) | EC50 (hNPY2R; [4]) | EC50 (hNPY2R; 100% human plasma, read-out: hNPY2R 100% hP) | EC50 (hGLP1R; 100% human plasma, read-out: hGLP1R 100% hP) |
| --- | --- | --- | --- | --- | --- | --- |
| CC[C@H](C)[C@H](NC(=O)[C@H](CO)NC(=O)[C@H](Cc1ccc(O)cc1)NC(=O)[C@H](CC(=O)O)NC(=O)[C@H](CO)NC(=O)[C@@H](NC(=O)[C@H](Cc1ccccc1)NC(=O)[C@@H](NC(=O)CNC(=O)[C@H](CCC(=O)O)NC(=O)C(C)(C)NC(=O)[C@@H](N)Cc1ccc(O)cc1)[C@@H](C)O)[C@@H](C)O)C(=O)NC(C)(C)C(=O)N[C@@H](CC(C)C)C(=O)N[C@@H](CCC(=O)O)C(=O)N[C@@H](CCCCN)C(=O)N[C@@H](CCC(N)=O)C(=O)N[C@@H](C)C(=O)N[C@@H](CCC(N)=O)C(=O)NC(C)(C)C(=O)N[C@@H](C)C(=O)N[C@@H](Cc1ccccc1)C(=O)N[C@H](C(=O)N[C@@H](CCC(=O)O)C(=O)N[C@@H](Cc1c[nH]c2ccccc12)C(=O)N[C@@H](CC(C)C)C(=O)N[C@@H](CC(C)C)C(=O)N[C@@H](CCCCNC(=O)[C@@H](N)CCCCNC(=O)CC[C@H](NC(=O)CC[C@H](NC(=O)CC[C@H](NC(=O)CC[C@H](NC(=O)CC[C@H](NC(=O)CC[C@H](NC(=O)CCCCCCCCCCCCCCCCCCC(=O)O)C(=O)O)C(=O)O)C(=O)O)C(=O)O)C(=O)O)C(=O)O)C(=O)NCC(=O)NCC(=O)N1CCC[C@H]1C(=O)N[C@@H](CO)C(=O)N[C@@H](CO)C(=O)NCC(=O)N[C@@H](C)C(=O)N[C@@H](CO)C(=O)N[C@@H](CC(C)C)C(=O)N[C@@H](CCCNC(=N)N)C(=O)N[C@@H](Cc1c[nH]cn1)C(=O)N[C@@H](Cc1ccc(O)cc1)C(=O)N[C@@H](Cc1ccc(O)cc1)C(=O)N[C@@H](CC(N)=O)C(=O)N[C@@H](Cc1c[nH]c2ccccc12)C(=O)N[C@@H](CC(C)C)C(=O)N[C@H](C(=O)N[C@@H](CCCNC(=N)N)C(=O)N[C@@H](CCC(N)=O)C(=O)N[C@@H](CCCNC(=N)N)C(=O)N[C@@H](Cc1ccc(O)cc1)C(N)=O)[C@@H](C)O)C(C)C [Compound 109, Y-Aib-E-G-T-F-T-S-D-Y-S-I-Aib-L-E-K-Q-A-Q-Aib-A-F-V-E-W-L-L-K(1,3)-GGPSSGASLRHYYNWLTRQRY-NH2.C20DA-gGlu-gGlu-glu-gGlu-gGlu-Glu-eLys(1,2)] | 0.28 nM | 0.09 nM | 0.64 nM | 10.8 nM | – | – |
| CC[C@H](C)[C@H](NC(=O)[C@H](CC(C)C)NC(=O)[C@H](Cc1c[nH]c2ccccc12)NC(=O)[C@H](CCC(=O)O)NC(=O)[C@@H](NC(=O)[C@H](Cc1ccccc1)NC(=O)[C@H](C)NC(=O)C(C)(C)NC(=O)[C@H](CCC(N)=O)NC(=O)[C@H](C)NC(=O)[C@H](CCC(N)=O)NC(=O)[C@H](CCCCN)NC(=O)[C@H](CCC(=O)O)NC(=O)[C@H](CC(C)C)NC(=O)C(C)(C)NC(=O)[C@@H](NC(=O)[C@H](CO)NC(=O)[C@H](Cc1ccc(O)cc1)NC(=O)[C@H](CC(=O)O)NC(=O)[C@H](CO)NC(=O)[C@@H](NC(=O)[C@H](Cc1ccccc1)NC(=O)[C@@H](NC(=O)CNC(=O)[C@H](CCC(=O)O)NC(=O)C(C)(C)NC(=O)[C@@H](N)Cc1ccc(O)cc1)[C@@H](C)O)[C@@H](C)O)[C@@H](C)CC)C(C)C)C(=O)N[C@@H](CCCCNC(=O)[C@@H](N)CCCCNC(=O)CC[C@H](NC(=O)CC[C@H](NC(=O)CC[C@H](NC(=O)CC[C@H](NC(=O)CC[C@H](NC(=O)CC[C@H](NC(=O)CCCCCCCCCCCCCCCCCCC(=O)O)C(=O)O)C(=O)O)C(=O)O)C(=O)O)C(=O)O)C(=O)O)C(=O)NCC(=O)NCC(=O)N1CCC[C@H]1C(=O)N[C@@H](CO)C(=O)N[C@@H](CCC(=O)O)C(=O)N1CCC[C@H]1C(=O)N[C@@H](CCC(=O)O)C(=O)N[C@@H](CO)C(=O)N[C@@H](CC(C)C)C(=O)N[C@@H](CCCNC(=N)N)C(=O)N[C@@H](Cc1c[nH]cn1)C(=O)N[C@@H](Cc1ccc(O)cc1)C(=O)N[C@@H](Cc1ccc(O)cc1)C(=O)N[C@@H](CC(N)=O)C(=O)N[C@@H](Cc1c[nH]c2ccccc12)C(=O)N[C@@H](CC(C)C)C(=O)N[C@H](C(=O)N[C@@H](CCCNC(=N)N)C(=O)N[C@@H](CCC(N)=O)C(=O)N[C@@H](CCCNC(=N)N)C(=O)N[C@@H](Cc1ccc(O)cc1)C(N)=O)[C@@H](C)O [Compound 122, Y-Aib-E-G-T-F-T-S-D-Y-S-I-Aib-L-E-K-Q-A-Q-Aib-A-F-V-E-W-L-I-K(1,3)-GGPSEPESLRHYYNWLTRQRY-NH2.C20DA-gGlu-gGlu-gGlu-gGlu-gGlu-gGlu-eLys(1,2)] | 0.22 nM | 0.08 nM | 1.53 nM | – | 78.9 nM | – |
| CC[C@H](C)[C@H](NC(=O)[C@H](CC(C)C)NC(=O)[C@H](Cc1c[nH]c2ccccc12)NC(=O)[C@H](CCC(=O)O)NC(=O)[C@@H](NC(=O)[C@H](Cc1ccccc1)NC(=O)[C@H](C)NC(=O)C(C)(C)NC(=O)[C@H](CCC(N)=O)NC(=O)[C@H](C)NC(=O)[C@H](CCC(N)=O)NC(=O)[C@H](CCCCN)NC(=O)[C@H](CCC(=O)O)NC(=O)[C@H](CC(C)C)NC(=O)C(C)(C)NC(=O)[C@@H](NC(=O)[C@H](CO)NC(=O)[C@H](Cc1ccc(O)cc1)NC(=O)[C@H](CC(=O)O)NC(=O)[C@H](CO)NC(=O)[C@@H](NC(=O)[C@H](Cc1ccccc1)NC(=O)[C@@H](NC(=O)CNC(=O)[C@H](CCC(=O)O)NC(=O)C(C)(C)NC(=O)[C@@H](N)Cc1ccc(O)cc1)[C@@H](C)O)[C@@H](C)O)[C@@H](C)CC)C(C)C)C(=O)N[C@@H](CCCCNC(=O)[C@@H](N)CCCCNC(=O)CC[C@H](NC(=O)CC[C@H](NC(=O)CC[C@H](NC(=O)CC[C@H](NC(=O)CC[C@H](NC(=O)CC[C@H](NC(=O)CCCCCCCCCCCCCCCCCCC(=O)O)C(=O)O)C(=O)O)C(=O)O)C(=O)O)C(=O)O)C(=O)O)C(=O)NCC(=O)NCC(=O)N1CCC[C@H]1C(=O)N[C@@H](CO)C(=O)N[C@@H](CO)C(=O)NCC(=O)N[C@@H](CCC(=O)O)C(=O)N[C@@H](CO)C(=O)N[C@@H](CC(C)C)C(=O)N[C@@H](CCCNC(=N)N)C(=O)N[C@@H](Cc1c[nH]cn1)C(=O)N[C@@H](Cc1ccc(O)cc1)C(=O)N[C@@H](Cc1ccc(O)cc1)C(=O)N[C@@H](CC(N)=O)C(=O)N[C@@H](Cc1c[nH]c2ccccc12)C(=O)N[C@@H](CC(C)C)C(=O)N[C@H](C(=O)N[C@@H](CCCNC(=N)N)C(=O)N[C@@H](CCC(N)=O)C(=O)N[C@@H](CCCNC(=N)N)C(=O)N[C@@H](Cc1ccc(O)cc1)C(N)=O)[C@@H](C)O [Compound 127, Y-Aib-E-G-T-F-T-S-D-Y-S-I-Aib-L-E-K-Q-A-Q-Aib-A-F-V-E-W-L-I-K(1,3)-GGPSSGESLRHYYNWLTRQRY-NH2.C20DA-gGlu-gGlu-gGlu-gGlu-gGlu-gGlu-eLys(1,2)] | 0.04 nM | 0.05 nM | 0.84 nM | 13.2 nM | – | 1.6 nM |
